Measured values as given in patent US20080234384A1, “BIARYL AND BIHETEROARYL COMPOUNDS USEFUL IN TREATING IRON DISORDERS” (XENON PHARMACEUTICALS INC., priority 2007, published 2008).
Counter-ions that a name gives are not always drawn.

What follows are compounds tested against T1, DMT1 (Homo sapiens, UniProt P49281) (assay: DMT1 Activity Assay (In Vitro Assay)). Conditions: read-out: IC50 Activity Level.
T1 sequence (P49281 1-568): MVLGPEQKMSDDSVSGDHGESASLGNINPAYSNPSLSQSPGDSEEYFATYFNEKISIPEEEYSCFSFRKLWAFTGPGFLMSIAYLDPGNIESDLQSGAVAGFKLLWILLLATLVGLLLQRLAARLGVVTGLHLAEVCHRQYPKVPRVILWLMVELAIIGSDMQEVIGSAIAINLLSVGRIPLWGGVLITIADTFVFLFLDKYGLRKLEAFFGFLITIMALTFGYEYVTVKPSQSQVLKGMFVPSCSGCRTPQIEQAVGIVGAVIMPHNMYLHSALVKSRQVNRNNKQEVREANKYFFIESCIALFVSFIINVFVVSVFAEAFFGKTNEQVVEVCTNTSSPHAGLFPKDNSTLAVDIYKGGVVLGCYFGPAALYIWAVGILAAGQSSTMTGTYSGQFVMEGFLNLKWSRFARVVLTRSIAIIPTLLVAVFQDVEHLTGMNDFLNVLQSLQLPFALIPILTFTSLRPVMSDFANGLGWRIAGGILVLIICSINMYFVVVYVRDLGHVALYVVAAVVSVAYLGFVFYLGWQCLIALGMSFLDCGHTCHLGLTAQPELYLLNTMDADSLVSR
Type: cell-based
From the text: In particular, identification of the compounds of the invention ability to modulate, preferably to inhibit, DMT1 activity, can be assessed using a variety of in vitro and in vivo assays, for measuring uptake of reduced iron (Fe^2+). One such protocol involves the screening of chemical agents for ability to modulate the activity of DMT1 thereby identifying it as a modulating agent. The in vitro activity of DMT1 can be measured in cell based assays by either directly measuring iron flux (using a radioactively labelled iron ^55Fe) or by measuring the fluorescence of a cell permeable iron fluorophore such as calcein. Stable cell lines overexpressing DMT1 are exposed to ^55Fe or loaded with calcein and then compound is applied. […] Alternatively, in another format electrophysiological techniques can be used to measure the current or iron or other metals traversing the cell membrane with DMT1 in a Xenopus oocyte or other cell based system (Gunshin et al., Nature, 1997, 31; 388(6641):482-8).
This example discloses various in vitro assay for testing and profiling test agents against DMT1 stably expressed in cells of either an endogenous or recombinant origin. These assays can use stable cell lines overexpressing DMT1 or intestinal cells and intestinal tissue expressing endogenous DMT1. DMT1 function could also be assessed in other cell types that express DMT1. Of greatest relevance would be the erythrocytes (e.g. K562 cells) or hepatocytes (e.g. […]).
DMT1 function can be assessed in a number of ways, including monitoring fluorescence changes of an iron fluorophore (e.g. calcein), monitoring uptake of radiolabelled iron (55Fe or ^59Fe) (Picard et al., J. Biol. Chem., 2000, 275(46):35738-45 and Wetli et al., Chem. Biol. 2006 September; 13(9):965-72), or by assessing the current or transport of iron and other metals into the cells or tissues using standard electrophysiological techniques (Gunshin et al., Nature, 1997, 388(6641):482-8.).
Variations of these assays involve alterations of incubation times, the iron status of the cells and tissues (which may be modulated by chemical chelators or by harvesting from iron deficient animals), the metal cation detected and the pH of the reaction can generally be made by conventional techniques known to those skilled in the art.

Compound	IC50 [nM]
N=C(N)NCCc1ccccc1Sc1ccccc1CCNC(=N)N [Example 5, (4-methylbenzenesulfonate)]	≥ 1000
N=C(N)SCc1cc(F)ccc1Sc1cc(F)c(F)cc1CSC(=N)N [Example 1.16, 2-[2-(2-carbamimidoylsulfanylmethyl-4,5-difluorophenylsulfanyl)-5-fluorobenzyl]isothiourea dihydrobromide]	100 to 1000
N=C(N)SCc1ccccc1C(=O)c1cc(F)ccc1CSC(=N)N [Example 2.27, 2-(6-(amidinothiomethyl)phenyl)carbonyl-1-(amidinothiomethyl)-4-fluorobenzene dihydrobromide]	≥ 1000
N=C(N)SCc1ccccc1C(=O)c1ccc(F)cc1CSC(=N)N [Example 2.26, 2-(6-(amidinothiomethyl)phenyl)carbonyl-1-(amidinothiomethyl)-5-fluorobenzene dihydrobromide]	100 to 1000
N=C(N)SCc1ccccc1Sc1cc(Cl)ccc1CSC(=N)N [Example 1.11, 2-[2-(2-carbamimidoylsulfanylmethyl-5-chlorophenylsulfanyl)-benzyl]isothiourea dihydrobromide]	100 to 1000
N=C(N)SCc1cc(Cl)ccc1Sc1ccc(Cl)cc1CSC(=N)N [Example 1.22, 2-[2-(2-carbamimidoylsulfanylmethyl-4-chlorophenylsulfanyl)-5-chlorobenzyl]isothiourea dihydrobromide]	≥ 1000
N=C(NN)SCc1ccccc1Sc1ccccc1CSC(=N)NN [Example 3, 2-(6-((aminoamidino)thiomethyl)phenyl)thio-1-((aminoamidino)thiomethyl)benzene dihydrobromide]	≥ 1000
N=C(N)SCCc1cc(F)ccc1Sc1ccc(F)cc1CSC(=N)N [Example 1.23, 2-[2-(2-carbamimidoylsulfanylethyl-4-fluorophenylsulfanyl)-5-fluorobenzyl]isothiourea dihydrobromide]	100 to 1000
N=C(N)SCc1ccccc1Sc1cc(F)ccc1CSC(=N)N [Example 1.12, 2-[2-(2-carbamimidoylsulfanylmethyl-5-fluorophenylsulfanyl)benzyl]-isothiourea dihydrobromide]	100 to 1000
N=C(N)SCc1ccccc1Oc1cc(Cl)ccc1CSC(=N)N [Example 2.18, 2-[2-({[amino(imino)methyl]thio}methyl)-5-chlorophenoxy]benzyl imidothiocarbamate dihydrobromide]	≥ 1000
N=C(N)SCc1cc(F)ccc1Oc1ccc(F)cc1CSC(=N)N [Example 2.13, 2-[2-(2-carbamimidoylsulfanylmethyl-4-fluorophenoxy)-5-fluorobenzyl]isothiourea dihydrobromide]	100 to 1000
N=C(N)CCc1ccccc1Sc1ccccc1CCC(=N)N [Example 6, 2-(6-(2-amidinoethyl)phenyl)thio-1-(2-amidinoethyl)benzene]	≥ 1000
N=C(N)SCc1cc(F)ccc1Sc1cc(Cl)ccc1CSC(=N)N [Example 1.7, 2-[2-(2-carbamimidoylsulfanylmethyl-5-chloro-phenylsulfanyl)-5-fluoro-benzyl]-isothiourea dihydrobromide]	100 to 1000
N#CN=C(N)Cc1ccccc1Sc1ccccc1CC(N)=NC#N [Example 7.1, 2-(6-((cyanoamidino)methyl)phenyl)thio-1-((cyanoamidino)methyl)benzene]	≥ 1000
N=C(N)SCc1cc(F)ccc1Sc1ccc(C(F)(F)F)cc1CSC(=N)N [Example 1.18, 2-[2-(2-carbamimidoylsulfanylmethyl-4-fluorophenylsulfanyl)-5-(trifluoromethyl)benzyl]isothiourea dihydrobromide]	≥ 1000
N=C(N)SCc1cc(F)ccc1Sc1c(CSC(=N)N)cccc1[N+](=O)[O-] [Example 1.17, 2-[2-(2-carbamimidoylsulfanylmethyl-4-fluorophenylsulfanyl)-3-nitrobenzyl]isothiourea dihydrobromide]	≥ 1000

Compound	IC50 [nM]
CCNc1ccc(Sc2ccccc2CSC(=N)N)c(CSC(=N)N)c1 [Example 1.21, 2-[2-(2-carbamimidoylsulfanylmethylphenylsulfanyl)-5-ethylaminobenzyl]isothiourea trihydrobromide]	≥ 1000
CS(=O)(=O)c1ccc(CSC(=N)N)c(Sc2ccc(F)cc2CSC(=N)N)c1 [Example 2.7, 2-{[2-({[amino(imino)methyl]thio}methyl)-4-fluorophenyl]thio}-4-(methylsulfonyl)benzyl imidothiocarbamate dihydrochloride]	≥ 1000
N=C(N)SCc1ccccc1Sc1ccc(C(F)(F)F)cc1CSC(=N)N [Example 1.27, 2-[2-(2-carbamimidoylsulfanylmethylphenylsulfanyl)-5-(trifluoromethyl)benzyl]isothiourea dihydrobromide]	≥ 1000
CC(SC(=N)N)c1ccccc1Oc1ccccc1C(C)SC(=N)N (centres unmarked) [Example 1, 2-(1-{2-[2-(1-carbamimidoylsulfanylethyl)phenoxy]phenyl}ethyl)-isothiourea dihydrobromide]	≥ 1000
N=C(N)SCc1cc(F)ccc1Sc1cc(F)ccc1CSC(=N)N [Example 1.15, 2-[2-(2-carbamimidoylsulfanylmethyl-5-fluorophenylsulfanyl)-5-fluorobenzyl]isothiourea dihydrobromide]	100 to 1000
N=C(N)SCc1cc(F)ccc1Sc1ccc([N+](=O)[O-])cc1CSC(=N)N [Example 2.1, 2-{[2-({[amino(imino)methyl]thio}methyl)-4-fluorophenyl]thio}-5-nitrobenzyl imidothiocarbamate dihydrobromide]	10 to 100
N=C(N)SCc1cc(F)ccc1Sc1ccc2ccccc2c1CSC(=N)N [Example 1.14, 2-[2-(1-carbamimidoylsulfanylmethylnaphthalen-2-ylsulfanyl)-5-fluorobenzyl]isothiourea dihydrobromide]	≥ 1000
N=C(N)SCc1cc(F)ccc1Oc1cc(Cl)ccc1CSC(=N)N [Example 2.30, 2-[2-({[amino(imino)methyl]thio}methyl)-5-chlorophenoxy]-5-fluorobenzyl imidothiocarbamate dihydrobromide]	100 to 1000
N=C(N)SCc1ccccc1C(=O)c1cc(Cl)ccc1CSC(=N)N [Example 2.28, 2-(6-(amidinothiomethyl)phenyl)carbonyl-1-(amidinothiomethyl)-4-chlorobenzene dihydrobromide dihydrobromide]	≥ 1000
Cc1ccc(CSC(=N)N)c(Sc2ccccc2CSC(=N)N)c1 [Example 1.3, 2-[2-(2-carbamimidoylsulfanylmethyl-5-methylphenylsulfanyl)-benzyl]isothiourea dihydrobromide]	≥ 1000
COc1ccc(Sc2ccc(F)cc2CSC(=N)N)c(CSC(=N)N)c1 [Example 1.6, 2-[2-(2-carbamimidoylsulfanylmethyl-4-methoxyphenylsulfanyl)-5-fluorobenzyl]isothiourea dihydrobromide]	100 to 1000
N=C(N)SCc1ccccc1Sc1cc(F)c(F)cc1CSC(=N)N [Example 1.9, 2-[2-(2-carbamimidoylsulfanylmethyl-4,5-difluorophenylsulfanyl)-benzyl]isothiourea dihydrobromide]	100 to 1000
N=C(N)Cc1ccccc1Sc1ccccc1CC(=N)N [Example 6.1, 2-(6-(amidinomethyl)phenyl)thio-1-(amidinomethyl)benzene]	≥ 1000
N=C(N)SCc1ccccc1Sc1ccc(Cl)cc1CSC(=N)N [Example 1.26, 2-[2-(2-carbamimidoylsulfanylmethylphenylsulfanyl)-5-chlorobenzyl]-isothiourea dihydrobromide]	100 to 1000
N=C(N)SCc1ccccc1S(=O)(=O)c1ccccc1CSC(=N)N [Example 2.3, 2-[2-(2-carbamimidoylsulfanylmethylphenylsulfonyl)benzyl]-isothiourea dihydrobromide]	≥ 1000
N=C(N)CCCc1ccccc1Sc1ccccc1CCCC(=N)N [Example 6.2, 2-(6-(3-amidinopropyl)phenyl)thio-1-(3-amidinopropyl)benzene]	≥ 1000
